Measured values reported in PMC9923211, “Functional characterization and key residues engineering of a regiopromiscuity O-methyltransferase involved in benzylisoquinoline alkaloid biosynthesis in Nelumbo nucifera” (Horticulture Research, 2022).
Each block holds one molecule with its values, some of them ahead of it.

What was measured:
Test in all cases: UPLC-MS methylation assay, Michaelis-Menten fit
NnOMT6 = biological target: T1, NnOMT6 (Nelumbo nucifera, UniProt A0A1U7Z1M5); assay type: biochemical; conditions: 50 mM potassium phosphate pH 8.0, 37°C, 30 min
T1 construct: gene LOC104585771

[1] = tested on: COc1cc2c(cc1O)[C@@H]1Cc3ccc(OC)c(O)c3CN1CC2; assay type: biochemical, Nelumbo nucifera; conditions: SAM as methyl donor, 50 mM potassium phosphate pH 8.0, 37°C, 30 min
[2] = tested on: COc1c(O)cc2c3c1-c1ccccc1C[C@@H]3NCC2; assay type: biochemical, Nelumbo nucifera; conditions: SAM as methyl donor, 50 mM potassium phosphate pH 8.0, 37°C, 30 min

- Km (NnOMT6; 200 μM caffeic acid as acceptor): 163 µM
Molecule: C[S+](CC[C@H](N)C(=O)O)C[C@H]1O[C@@H](n2cnc3c(N)ncnc32)[C@H](O)[C@@H]1O (some centres unmarked) [SAM]

Molecule: NnOMT6 (Nelumbo nucifera; N323A)
- Km [1]: 86.35 µM
- Km [2]: 132.77 µM

- Km (NnOMT6; 200 μM SAM): 282 µM
Molecule: Oc1ccc(C[C@@H]2NCCc3cc(O)c(O)cc32)cc1 [compound 1, (S)-norcoclaurine]

- Km (NnOMT6; 200 μM SAM): 216 µM
Molecule: O=C(O)/C=C/c1ccc(O)c(O)c1 [compound 16, caffeic acid]
